# Measurements from patent US20100267819A1, “PHARMACEUTICAL COMPOSITION FOR DIABETIC NEPHROPATHY AND ITS PREPARATION AND APPLICATION” (Guangzhou Consun Medicine R&D Medicine, priority 2009, published 2010).
# Key:
# [1] = tested on: Rat messangial cell cell line HBZY-1; experiment: Hypertrophy of rat mesangial cells cultured under high glucose (HE staining); type: cell-based; conditions: high glucose 25 mmol/L, 48 h, extract 0.1 g/L, compounds 1, 0.1, 0.01 μmol/L, co-use 0.06:0.03, 0.05:0.05, 0.03:0.06 μmol/L
# Protocol: (§1) Take the rat mesangial cells in log phase growth, prepare into unicell suspension (5×10^4 cells/ml) with 5% DMEM medium of newborn calf serum, inoculate to the 24 well plate coated with coverslip for 1 ml/well (cell quantity: 5×10^4/well), incubated under 5% CO2 incubator at 37° C. for 24 hours, added the DMEM medium without serum, incubated 24 hours to make all the cells to anestrum. Discard the supernatant, added 900 μl DMEM medium and 100 μl different concentration amylaceum (each concentration for 3 repeat) and incubated 24 h, 48 h, 72 h and 96 h, respectively. Observed the modeling results after staining with HE and PAS. […] Put the coverslips pre-treatment by poly-L-lysine into 24-well cell culture plates before added the unicell suspension, then cultured these cells until the step of synchronization. […] Each group repeats for 3 times. Then, all the groups are incubated under 5% CO2 incubator at 37° C. for 48 h. After that, take out of the coverslips for HE staining, PAS staining and immunocytochemistry staining Routine HE Staining, Routine PAS Staining, CTGF Staining
# [2] = tested on: Rat messangial cell cell line HBZY-1; experiment: Extracellular matrix accrementition of rat mesangial cells cultured under high glucose (PAS staining); type: cell-based; conditions: high glucose 25 mmol/L, 48 h, extract 0.1 g/L, compounds 1, 0.1, 0.01 μmol/L, co-use 0.06:0.03, 0.05:0.05, 0.03:0.06 μmol/L
# Protocol: as §1
# CTGF = CTGF express of rat mesangial cells cultured under high glucose (immunocytochemistry); type: cell-based; conditions: high glucose 25 mmol/L, 48 h, CTGF staining; extract 0.1 g/L, compounds 1, 0.1, 0.01 μmol/L, co-use 0.06:0.03, 0.05:0.05, 0.03:0.06 μmol/L
# Protocol: as §1, with “Routine HE Staining, Routine PAS Staining, CTGF Staining” left out
# db|db mouse [3] = experiment: Weight of db|db mouse of diabetic nephropathy; type: in vivo; conditions: for Weight: db|db mouse; for weight of db|db mouse: vs model group, P<0.05, intragastric
# Protocol: (§2) During the experiment, all the mouse are bred in lamina flow cage, free to food and water. Water and underpad are changed every day to keep the cage clean, and the water, seedstuff, underpad are stationary. […] All the appliances and food are sterilized everyday. […] Moreover, 10 8-week-old B6 mouse are taken as the normal control. Each group is given 0.4 ml corresponding drug in different concertration or physiological saline by intragastric administration for 5 weeks. Determinate the food-intake and water-intake, weigh every week, determinate the blood glucose every week.
# db|db mouse [4] = experiment: Blood glucose of db|db mouse in diabetic nephropathy; type: in vivo; conditions: for Blood glucose value: db|db mouse; for blood glucose of db|db mouse: final phase of administration, vs model group, P<0.05
# Protocol: as §2
# db|db mouse [5] = experiment: Urine volume, urine total protein and urine creatinine in 24 hours of db|db mouse in diabetic nephropathy; type: in vivo; conditions: for Total protein / Urine creatinine / Urine volume: 24 hour urine after 5 weeks; for urine creatinine in 24 hours / urine total protein in 24 hours / urine volume in 24 hours: vs model group
# Protocol: as §2
# db|db mouse [6] = experiment: Kidney weight and kidney index of db|db mouse in diabetic nephropathy; type: in vivo; conditions: after 5 weeks; for Kidned index: kidney weight/body weight×1000
# Protocol: as §2
# [7] = 2 weeks, 0.5 mg/kg intragastric
# [8] = 2 weeks, 1.0 mg/kg intragastric
# [9] = 2 weeks, 2.0 mg/kg intragastric
# [10] = 3 weeks, 0.5 mg/kg intragastric
# [11] = 3 weeks, 1.0 mg/kg intragastric
# [12] = 3 weeks, 2.0 mg/kg intragastric
# [13] = 4 weeks, 0.5 mg/kg intragastric
# [14] = 4 weeks, 1.0 mg/kg intragastric
# [15] = 4 weeks, 2.0 mg/kg intragastric
# [16] = 5 weeks, 0.5 mg/kg intragastric
# [17] = 5 weeks, 1.0 mg/kg intragastric
# [18] = 5 weeks, 2.0 mg/kg intragastric
structure (smiles),measurement,setting,value
"COc1cc2ccc(=O)oc2cc1O [7-hydroxy-6-methoxycomarin, 7-hydroxy-6-methoxycoumarin]",hypertrophy of rat mesangial cells induced by high glucose,[1],restrain significantly the hypertrophy
same,extracellular matrix of rat mesangial cells induced by high glucose,[2],decrease the extracellular matrix
same,CTGF express of rat mesangial cells induced by high glucose,CTGF,decrease the CTGF express
same,Weight,"db|db mouse [3]; 0 week, 0.5 mg/kg intragastric",23.2 ± 0.6 g
same,Weight,"db|db mouse [3]; 0 week, 1.0 mg/kg intragastric",24.1 ± 0.5 g
same,Weight,"db|db mouse [3]; 0 week, 2.0 mg/kg intragastric",23.9 ± 0.5 g
same,Weight,"db|db mouse [3]; 1 week, 0.5 mg/kg intragastric",30.6 ± 1.2 g
same,Weight,"db|db mouse [3]; 1 week, 1.0 mg/kg intragastric",31.8 ± 1.0 g
same,Weight,"db|db mouse [3]; 1 week, 2.0 mg/kg intragastric",32.0 ± 1.3 g
same,Weight,db|db mouse [3]; [7],36.4 ± 1.5 g
same,Weight,db|db mouse [3]; [8],33.7 ± 1.4 g
same,Weight,db|db mouse [3]; [9],34.3 ± 1.9 g
same,Weight,db|db mouse [3]; [10],40.1 ± 2.5 g
same,Weight,db|db mouse [3]; [11],38.8 ± 1.4 g
same,Weight,db|db mouse [3]; [12],39.5 ± 1.8 g
same,Weight,db|db mouse [3]; [13],43.0 ± 2.1 g
same,Weight,db|db mouse [3]; [14],42.5 ± 2.5 g
same,Weight,db|db mouse [3]; [15],44.0 ± 3.2 g
same,Weight,db|db mouse [3]; [16],47.0 ± 3.9 g
same,Weight,db|db mouse [3]; [17],45.8 ± 3.0 g
same,Weight,db|db mouse [3]; [18],45.7 ± 4.5 g
same,weight of db|db mouse,db|db mouse [3]; 5 weeks,restrain the weight
same,Blood glucose value,"db|db mouse [4]; 1 week, 0.5 mg/kg intragastric",13.3 ± 4.5 mmol/L
same,Blood glucose value,"db|db mouse [4]; 1 week, 1.0 mg/kg intragastric",13.5 ± 4.0 mmol/L
same,Blood glucose value,"db|db mouse [4]; 1 week, 2.0 mg/kg intragastric",13.8 ± 4.7 mmol/L
same,Blood glucose value,db|db mouse [4]; [7],13.4 ± 2.7 mmol/L
same,Blood glucose value,db|db mouse [4]; [8],13.0 ± 3.2 mmol/L
same,Blood glucose value,db|db mouse [4]; [9],13.3 ± 2.7 mmol/L
same,Blood glucose value,db|db mouse [4]; [10],13.5 ± 3.2 mmol/L
same,Blood glucose value,db|db mouse [4]; [11],12.6 ± 4.8 mmol/L
same,Blood glucose value,db|db mouse [4]; [12],13.1 ± 4.7 mmol/L
same,Blood glucose value,db|db mouse [4]; [13],12.1 ± 3.6 mmol/L
same,Blood glucose value,db|db mouse [4]; [14],10.8 ± 2.5 mmol/L
same,Blood glucose value,db|db mouse [4]; [15],10.4 ± 3.9 mmol/L
same,Blood glucose value,db|db mouse [4]; [16],13.0 ± 2.2 mmol/L
same,Blood glucose value,db|db mouse [4]; [17],10.4 ± 2.5 mmol/L
same,Blood glucose value,db|db mouse [4]; [18],11.3 ± 4.4 mmol/L
same,blood glucose of db|db mouse,db|db mouse [4],remarkably decrease the blood glucose
same,Total protein,db|db mouse [5]; 0.5 mg/kg intragastric,1.398 ± 0.372 mg
same,Urine creatinine,db|db mouse [5]; 0.5 mg/kg intragastric,1.85 ± 0.56 mmol/L
same,Urine volume,db|db mouse [5]; 0.5 mg/kg intragastric,0.95 ± 0.34 mL
same,Total protein,db|db mouse [5]; 1.0 mg/kg intragastric,1.102 ± 0.249 mg
same,Urine creatinine,db|db mouse [5]; 1.0 mg/kg intragastric,3.20 ± 0.85 mmol/L
same,Urine volume,db|db mouse [5]; 1.0 mg/kg intragastric,0.75 ± 0.25 mL
same,Total protein,db|db mouse [5]; 2.0 mg/kg intragastric,0.878 ± 0.352 mg
same,Urine creatinine,db|db mouse [5]; 2.0 mg/kg intragastric,2.81 ± 0.76 mmol/L
same,Urine volume,db|db mouse [5]; 2.0 mg/kg intragastric,0.78 ± 0.31 mL
same,urine creatinine in 24 hours,db|db mouse [5],elevate the urine creatinine
same,urine total protein in 24 hours,db|db mouse [5],decrease
same,urine volume in 24 hours,db|db mouse [5],decrease the urine volume
same,kidney index,db|db mouse [6],obviously decrease
same,kidney weight,db|db mouse [6],obviously decrease
same,Kidned weight,db|db mouse [6]; 0.5 mg/kg intragastric,0.29 ± 0.02 g
same,Kidned index,db|db mouse [6]; 0.5 mg/kg intragastric,12.6 ± 1.0 ‰
same,Kidned weight,db|db mouse [6]; 1.0 mg/kg intragastric,0.25 ± 0.03 g
same,Kidned weight,db|db mouse [6]; 2.0 mg/kg intragastric,0.24 ± 0.04 g
same,Kidned index,db|db mouse [6]; 2.0 mg/kg intragastric,9.1 ± 1.7 ‰
O=c1ccc2ccc(O)cc2o1 [7-hydroxycoumarin],hypertrophy of rat mesangial cells induced by high glucose,[1],restrain significantly the hypertrophy
same,extracellular matrix of rat mesangial cells induced by high glucose,[2],decrease the extracellular matrix
same,CTGF express of rat mesangial cells induced by high glucose,CTGF,decrease the CTGF express
same,Weight,"db|db mouse [3]; 0 week, 0.5 mg/kg intragastric",24.5 ± 0.5 g
same,Weight,"db|db mouse [3]; 0 week, 1.0 mg/kg intragastric",23.4 ± 0.5 g
same,Weight,"db|db mouse [3]; 0 week, 2.0 mg/kg intragastric",23.7 ± 0.6 g
same,Weight,"db|db mouse [3]; 1 week, 0.5 mg/kg intragastric",31.5 ± 1.5 g
same,Weight,"db|db mouse [3]; 1 week, 1.0 mg/kg intragastric",30.2 ± 1.4 g
same,Weight,"db|db mouse [3]; 1 week, 2.0 mg/kg intragastric",30.3 ± 0.5 g
same,Weight,db|db mouse [3]; [7],35.8 ± 1.8 g
same,Weight,db|db mouse [3]; [8],34.6 ± 1.4 g
same,Weight,db|db mouse [3]; [9],35.5 ± 1.7 g
same,Weight,db|db mouse [3]; [10],39.4 ± 2.0 g
same,Weight,db|db mouse [3]; [11],40.0 ± 2.7 g
same,Weight,db|db mouse [3]; [12],38.6 ± 1.9 g
same,Weight,db|db mouse [3]; [13],43.9 ± 3.1 g
same,Weight,db|db mouse [3]; [14],43.1 ± 2.8 g
same,Weight,db|db mouse [3]; [15],42.3 ± 2.8 g
same,Weight,db|db mouse [3]; [16],46.4 ± 4.6 g
same,Weight,db|db mouse [3]; [17],45.2 ± 4.1 g
same,Weight,db|db mouse [3]; [18],46.1 ± 5.3 g
same,weight of db|db mouse,db|db mouse [3]; 5 weeks,restrain the weight
same,Blood glucose value,"db|db mouse [4]; 1 week, 0.5 mg/kg intragastric",13.7 ± 4.1 mmol/L
same,Blood glucose value,"db|db mouse [4]; 1 week, 1.0 mg/kg intragastric",13.4 ± 4.6 mmol/L
same,Blood glucose value,"db|db mouse [4]; 1 week, 2.0 mg/kg intragastric",13.0 ± 3.6 mmol/L
same,Blood glucose value,db|db mouse [4]; [7],13.6 ± 2.9 mmol/L
same,Blood glucose value,db|db mouse [4]; [8],13.4 ± 2.6 mmol/L
same,Blood glucose value,db|db mouse [4]; [9],13.1 ± 5.1 mmol/L
same,Blood glucose value,db|db mouse [4]; [10],12.9 ± 2.9 mmol/L
same,Blood glucose value,db|db mouse [4]; [11],13.9 ± 4.3 mmol/L
same,Blood glucose value,db|db mouse [4]; [12],13.7 ± 5.1 mmol/L
same,Blood glucose value,db|db mouse [4]; [13],11.2 ± 4.0 mmol/L
same,Blood glucose value,db|db mouse [4]; [14],11.2 ± 4.4 mmol/L
same,Blood glucose value,db|db mouse [4]; [15],10.1 ± 2.4 mmol/L
same,Blood glucose value,db|db mouse [4]; [16],12.1 ± 1.9 mmol/L
same,Blood glucose value,db|db mouse [4]; [17],10.3 ± 2.0 mmol/L
same,Blood glucose value,db|db mouse [4]; [18],10.6 ± 3.0 mmol/L
same,blood glucose of db|db mouse,db|db mouse [4],remarkably decrease the blood glucose
same,Total protein,db|db mouse [5]; 0.5 mg/kg intragastric,1.205 ± 0.541 mg
same,Urine creatinine,db|db mouse [5]; 0.5 mg/kg intragastric,2.06 ± 0.65 mmol/L
same,Urine volume,db|db mouse [5]; 0.5 mg/kg intragastric,1.03 ± 0.28 mL
same,Total protein,db|db mouse [5]; 1.0 mg/kg intragastric,0.996 ± 0.338 mg
same,Urine creatinine,db|db mouse [5]; 1.0 mg/kg intragastric,2.30 ± 0.71 mmol/L
same,Urine volume,db|db mouse [5]; 1.0 mg/kg intragastric,0.72 ± 0.30 mL
same,Total protein,db|db mouse [5]; 2.0 mg/kg intragastric,1.147 ± 0.305 mg
same,Urine creatinine,db|db mouse [5]; 2.0 mg/kg intragastric,2.79 ± 0.54 mmol/L
same,Urine volume,db|db mouse [5]; 2.0 mg/kg intragastric,0.74 ± 0.33 mL
same,urine creatinine in 24 hours,db|db mouse [5],elevate the urine creatinine
same,urine total protein in 24 hours,db|db mouse [5],decrease
same,urine volume in 24 hours,db|db mouse [5],decrease the urine volume
same,kidney index,db|db mouse [6],obviously decrease
same,kidney weight,db|db mouse [6],obviously decrease
same,Kidned weight,db|db mouse [6]; 0.5 mg/kg intragastric,0.28 ± 0.04 g
same,Kidned index,db|db mouse [6]; 0.5 mg/kg intragastric,11.8 ± 1.5 ‰
same,Kidned weight,db|db mouse [6]; 1.0 mg/kg intragastric,0.26 ± 0.03 g
same,Kidned weight,db|db mouse [6]; 2.0 mg/kg intragastric,0.27 ± 0.02 g
same,Kidned index,db|db mouse [6]; 2.0 mg/kg intragastric,9.4 ± 0.3 ‰
